# According to patent US8404718B2, “Combinations of pyrazole kinase inhibitors” (Astex Therapeutics Limited, priority 2005, dated 2013):
# Columns and labels:
# [1] = biological target: T1, GSK3-β (Homo sapiens, UniProt P49841); test: Inhibitory activity against glycogen synthase kinase-3 (Protocol A or B); assay type: biochemical; details: either Protocol A or Protocol B; read-out: IC50 in the GSK3-B assays
# T1 construct: purchased Upstate Discovery
# Method: The activities of the compounds of the invention as inhibitors of GSK-3 were determined using either Protocol A or Protocol B below.
# The reaction is allowed to proceed for 3 hours before being stopped with an excess of ortho-phosphoric acid (5 μl at 2%). The filtration procedure is as for Activated CDK2/CyclinA assay above.
# GSK3β (human) is diluted to a 10× working stock in 50 mM Tris pH 7.5, 0.1 mM EGTA, 0.1 mM sodium vanadate, 0.1% β-mercaptoethanol, 1 mg/ml BSA.
# (§1) (specific activity approx 500 cpm/pmol, concentration as required).
# [2] = tested on: human colon carcinoma cell line HCT 116; test: Anti-proliferative activity, Alamar Blue assay; assay type: cell-based; details: 72 hours compound incubation, read-out: IC50, inhibition of cell growth, HCT 116
# Method: The anti-proliferative activities of the combinations of the invention, as well as the individual components of the combinations, are determined by measuring the ability of the compounds to inhibition of cell growth in a number of cell lines. Inhibition of cell growth is measured using the Alamar Blue assay (Nociari, M. M, Shalev, A., Benias, P., Russo, C. Journal of Immunological Methods 1998, 213, 157-167). The method is based on the ability of viable cells to reduce resazurin to its fluorescent product resorufin. For each proliferation assay cells are plated onto 96 well plates and allowed to recover for 16 hours prior to the addition of inhibitor compounds for a further 72 hours. At the end of the incubation period 10% (v/v) Alamar Blue is added and incubated for a further 6 hours prior to determination of fluorescent product at […]. In the case of the non-proliferating cell assay cells are maintained at confluence for 96 hour prior to the addition of inhibitor compounds for a further 72 hours. The number of viable cells is determined by Alamar Blue assay as before. All cell lines are obtained from ECACC (European Collection of cell Cultures).
# [3] = biological target: T2, CDK2/CyclinA (Homo sapiens, UniProt P24941); test: Measurement of CDK2 kinase inhibitory activity (IC50), Example 248; assay type: biochemical
# T2 construct: purchased Upstate Biotechnology
# Method: Compounds of the invention were tested for kinase inhibitory activity using either the following protocol or the activated CDK2/cyclin A kinase protocol described in Example 250.
# 1.7 μl of active CDK2/CyclinA (Upstate Biotechnology, 10 U/μl) is diluted in assay buffer (25.0 μl of 10× strength assay buffer (200 mM MOPS pH 7.2, 250 mM (3-glycerophosphate, 50 mM EDTA, 150 mM MgCl2), 11.27 μl 10 mM ATP, 2.5 μl 1M DTT, 25 μl 100 mM sodium orthovanadate, 708.53 μl H2O), and 10 μl mixed with 10 μl of histone substrate mix (60 μl bovine histone H1 (Upstate Biotechnology, 5 mg/ml), 940 μl H2O, 35 μCi γ^33P-ATP) and added to 96 well plates along with 5 μl of various dilutions of the test compound in DMSO (up to 2.5%). The reaction is allowed to proceed for 5 hours before being stopped with an excess of ortho-phosphoric acid (30 μl at 2%).
# (§2) γ^33P-ATP which remains unincorporated into the histone H1 is separated from phosphorylated histone H1 on a Millipore MAPH filter plate. The wells of the MAPH plate are wetted with 0.5% orthophosphoric acid, and then the results of the reaction are filtered with a Millipore vacuum filtration unit through the wells. Following filtration, the residue is washed twice with 200 μl of 0.5% orthophosphoric acid. Once the filters have dried, 25 μl of Microscint 20 scintillant is added, and then counted on a Packard Topcount for 30 seconds.
# [4] = biological target: Activated CDK2/CyclinA (Homo sapiens, UniProt P24941); test: Activated CDK2/CyclinA kinase inhibitory activity assay (IC50), Example 250A; assay type: biochemical
# Method: Compounds of the invention were tested for kinase inhibitory activity using the following protocol.
# (§3) The reaction is allowed to proceed for 2 to 4 hours before being stopped with an excess of ortho-phosphoric acid (5 μl at 2%).
# as §2, with “20” for “25”
# [5] = biological target: T3, CDK1/CyclinB (Homo sapiens, UniProt P06493); test: CDK1/CyclinB assay; assay type: biochemical; details: Example 250B protocol or selectivity protocol
# T3 construct: purchased Upstate Discovery
# Method: as §1, §3
# as §2, with “20” for “25”
# T1 sequence (P49841 whole entry): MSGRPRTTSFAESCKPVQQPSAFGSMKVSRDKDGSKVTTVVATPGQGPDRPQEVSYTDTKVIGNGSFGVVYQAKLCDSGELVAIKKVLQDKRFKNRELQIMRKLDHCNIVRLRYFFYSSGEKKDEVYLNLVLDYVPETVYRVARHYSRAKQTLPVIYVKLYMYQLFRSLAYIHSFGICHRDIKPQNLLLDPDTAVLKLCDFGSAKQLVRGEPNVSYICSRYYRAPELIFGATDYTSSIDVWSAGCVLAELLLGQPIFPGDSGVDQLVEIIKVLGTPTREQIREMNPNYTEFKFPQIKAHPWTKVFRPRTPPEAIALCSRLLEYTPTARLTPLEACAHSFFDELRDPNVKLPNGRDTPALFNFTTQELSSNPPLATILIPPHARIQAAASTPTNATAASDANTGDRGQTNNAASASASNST
# T3 sequence (P06493 whole entry): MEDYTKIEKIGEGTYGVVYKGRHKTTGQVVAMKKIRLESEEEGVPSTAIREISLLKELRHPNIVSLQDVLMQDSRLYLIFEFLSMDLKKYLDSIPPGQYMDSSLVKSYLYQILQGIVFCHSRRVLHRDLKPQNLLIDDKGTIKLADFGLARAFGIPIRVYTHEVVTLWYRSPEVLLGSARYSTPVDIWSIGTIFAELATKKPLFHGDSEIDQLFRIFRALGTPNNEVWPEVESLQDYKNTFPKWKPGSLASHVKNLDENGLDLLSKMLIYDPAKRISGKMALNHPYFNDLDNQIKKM
# T3 sequence (P14635 whole entry partner): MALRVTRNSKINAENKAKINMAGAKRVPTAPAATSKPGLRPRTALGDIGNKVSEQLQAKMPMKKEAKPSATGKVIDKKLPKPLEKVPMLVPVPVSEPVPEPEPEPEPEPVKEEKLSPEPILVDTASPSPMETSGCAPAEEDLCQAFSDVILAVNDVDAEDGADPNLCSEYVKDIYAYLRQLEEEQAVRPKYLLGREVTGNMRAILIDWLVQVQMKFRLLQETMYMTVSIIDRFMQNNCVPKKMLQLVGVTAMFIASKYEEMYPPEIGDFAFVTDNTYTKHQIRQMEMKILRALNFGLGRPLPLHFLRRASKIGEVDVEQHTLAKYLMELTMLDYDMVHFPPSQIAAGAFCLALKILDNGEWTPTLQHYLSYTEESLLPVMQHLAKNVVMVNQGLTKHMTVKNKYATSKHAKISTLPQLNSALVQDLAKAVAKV
Structure (SMILES),IC50 [1] [µM],IC50 [2] [µM],IC50 [3] [µM],IC50 [4] [µM],IC50 [5] [µM]
CC1(C)CC(NC(=O)c2n[nH]cc2NC(=O)c2c(F)cccc2F)CC(C)(C)N1 [Example 88],,,< 750,,
O=C(NCc1c(Cl)cccc1Cl)c1n[nH]cc1NC(=O)c1c(F)cccc1F [Example 93],,< 20,< 750,,
O=C(Nc1c[nH]nc1C(=O)NC1CCNCC1)c1ccccc1 [Example 140],< 10,< 20,,,
O=C(Nc1c[nH]nc1C(=O)NC1CCNCC1)c1ccc(F)cc1 [Example 141],< 10,< 20,,,
COc1cccc(F)c1C(=O)Nc1c[nH]nc1C(=O)NC1CCNCC1 [Example 142],< 10,< 20,,< 20,
O=C(Nc1c[nH]nc1C(=O)NC1CCNCC1)c1ccc(Cl)cc1 [Example 143],< 10,< 20,,< 20,
O=C(Nc1c[nH]nc1C(=O)NC1CCNCC1)c1cc(F)cc(F)c1 [Example 144],< 10,,,< 20,
O=C(Nc1c[nH]nc1C(=O)NC1CCNCC1)c1ccc(OC(F)F)cc1 [Example 145],< 10,,,< 20,
Cc1onc(-c2ccccc2)c1C(=O)Nc1c[nH]nc1C(=O)NC1CCNCC1 [Example 146],< 10,,,,
O=C(Nc1c[nH]nc1C(=O)NC1CCNCC1)c1cc(-c2ccccc2)cs1 [Example 147],< 10,< 20,,< 20,
O=C(NC1CCNCC1)c1n[nH]cc1NC(=O)c1c(F)cccc1Cl [Example 149],< 10,< 20,,< 20,
O=C(Nc1c[nH]nc1C(=O)NC1CCNCC1)c1ccc(N2CCOCC2)cc1Cl [Example 151],< 10,< 20,,,
CN1CCC(NC(=O)c2n[nH]cc2NC(=O)c2cccc3c2OCCO3)CC1 [Example 188],,< 20,,< 20,< 100
COc1cccc(OC)c1C(=O)Nc1c[nH]nc1C(=O)NC1CCN(C)CC1 [Example 206],,< 100,,,< 100
CN1CCC(NC(=O)c2n[nH]cc2NC(=O)c2cc(Cl)ccc2Cl)CC1 [Example 212],,< 20,,< 20,
CN1CCC(NC(=O)c2n[nH]cc2NC(=O)c2cccc(Cl)c2Cl)CC1 [Example 213],,< 20,,< 20,
CN1CCN(c2cc(F)cc(C(=O)Nc3c[nH]nc3C(=O)NC3CCCCC3)c2)CC1 [Example 215],,< 20,,< 20,
"CN1CCN(c2ccc(CNC(=O)c3n[nH]cc3-c3ccc(Cl)cc3Cl)cc2)CC1 [Example 226, 4-(2,4-Dichloro-phenyl)-1H-pyrazole-3-carboxylic acid 4-(4-methyl-piperazin-1-yl)-benzylamide]",,,< 750,,
"NC(=O)c1n[nH]cc1-c1ccccc1 [Example 228, 4-Phenyl-1H-pyrazole-3-carboxylic acid amide]",,,< 750,,
"CN1CCN(c2ccc(CNC(=O)c3n[nH]cc3-c3ccccc3)cc2)CC1 [Example 230, 4-Phenyl-1H-pyrazole-3-carboxylic acid 4-(4-methyl-piperazin-1-yl)-benzylamide]",,,< 750,,
"Cc1ccc(C)n1-c1c[nH]nc1C(=O)Nc1ccc(F)cc1 [Example 235, 4-(2,5-Dimethyl-pyrrol-1-yl)-1H-pyrazole-3-carboxylic acid(4-fluoro-phenyl)-amide]",,,< 750,,

# The next lines start with the values.
IC50 [1] [µM],IC50 [2] [µM],IC50 [3] [µM],IC50 [4] [µM],IC50 [5] [µM],Structure (SMILES)
< 10,< 100,,,,"CC(=O)Nc1c[nH]nc1C(=O)Nc1ccc(F)cc1 [Example 2, 4-Acetylamino-1H-pyrazole-3-carboxylic acid (4-fluoro-phenyl)-amide]"
< 10,< 20,,,,"O=C(Nc1c[nH]nc1C(=O)Nc1ccc(F)cc1)c1ccccc1 [Example 26, 4-Benzoylamino-1H-pyrazole-3-carboxylic acid (4-fluoro-phenyl)-amide]"
< 10,< 20,,,,"Cc1sccc1C(=O)Nc1c[nH]nc1C(=O)Nc1ccc(F)cc1 [Example 48, 4-[(2-Methyl-thiophene-3-carbonyl)-amino]-1H-pyrazole-3-carboxylic acid (4-fluoro-phenyl)-amide]"
< 10,< 20,,,,"CN1CCC(NC(=O)c2n[nH]cc2NC(=O)c2c(F)cccc2F)CC1 [Example 53, 4-(2,6-Difluoro-benzoylamino)-1H-pyrazole-3-carboxylic acid (1-methyl-piperidin-4-yl)-amide]"
< 10,< 20,,,,O=C(NC1CCCCC1)c1n[nH]cc1NC(=O)c1c(F)cccc1F [Example 65]
< 10,< 20,,,,O=C(NC1CCNCC1)c1n[nH]cc1NC(=O)c1c(F)cccc1F [Example 76]
< 10,< 20,,,,CC(C)(C)C1CCC(NC(=O)c2c[nH]nc2NC(=O)c2c(F)cccc2F)CC1 (centres unmarked) [Example 77]
< 10,,,,,O=C(NCCN1CCOCC1)c1n[nH]cc1NC(=O)c1c(F)cccc1F [Example 84]
< 10,< 20,,,,O=C(NC1CCN(Cc2ccccc2)CC1)c1n[nH]cc1NC(=O)c1c(F)cccc1F [Example 86]
< 10,< 20,,< 20,,N[C@H]1CC[C@H](NC(=O)c2n[nH]cc2NC(=O)c2c(F)cccc2F)CC1 [Example 102]
< 10,< 20,,< 20,,CC(C)N1CCC(NC(=O)c2n[nH]cc2NC(=O)c2c(F)cccc2F)CC1 [Example 106]
< 10,< 20,,< 20,,COc1cccc(F)c1C(=O)Nc1c[nH]nc1C(=O)NC1CCN(C(=O)OC(C)(C)C)CC1 [Example 119]
< 10,,,,,CC(C)(C)C1CCC(NC(=O)c2n[nH]cc2NC(=O)c2ccc(F)cc2)CC1 (centres unmarked) [Example 122]
< 10,< 20,,< 20,,COc1cccc(F)c1C(=O)Nc1c[nH]nc1C(=O)NC1CCC(C(C)(C)C)CC1 (centres unmarked) [Example 123]
< 10,,,,,CC(C)(C)C1CCC(NC(=O)c2n[nH]cc2NC(=O)c2ccc(Cl)cc2)CC1 (centres unmarked) [Example 126]
< 10,,,,,CC(C)(C)C1CCC(NC(=O)c2n[nH]cc2NC(=O)c2ccccc2)CC1 (centres unmarked) [Example 127]
< 10,,,,,CC(C)(C)C1CCC(NC(=O)c2n[nH]cc2NC(=O)c2ccc(OC(F)F)cc2)CC1 (centres unmarked) [Example 128]
< 10,,,,,CC(C)(C)C1CCC(NC(=O)c2n[nH]cc2NC(=O)c2cc(F)cc(F)c2)CC1 (centres unmarked) [Example 129]
< 10,< 20,,< 20,,CS(=O)(=O)N1CCC(NC(=O)c2n[nH]cc2NC(=O)c2c(F)cccc2F)CC1 [Example 131]
< 10,< 20,,< 20,,CC(C)(C)C1CCC(NC(=O)c2n[nH]cc2NC(=O)c2ccc(CN3CCCC3)o2)CC1 (centres unmarked) [Example 134]
< 10,< 100,,< 20,,CC(C)(C)C1CCC(NC(=O)c2n[nH]cc2NC(=O)c2ccc(CN3CCOCC3)o2)CC1 (centres unmarked) [Example 135]
< 10,< 20,,,,Cc1oc(CN2CCOCC2)cc1C(=O)Nc1c[nH]nc1C(=O)NC1CCC(C(C)(C)C)CC1 (centres unmarked) [Example 138]
